Measured values: PMC10141604, “Small-Molecule Inhibition of Androgen Receptor Dimerization as a Strategy against Prostate Cancer” (ACS Central Science, 2023)

Columns and labels:
AR LBP = molecular target: T1, AR LBP (Rattus norvegicus, UniProt P15207); experiment: Competitive ligand-binding assay (PolarScreen AR competitor assay)
T1 construct: purchased Invitrogen Life Technologies A15880
Protocol: Competitive Ligand Binding Assay
The binding affinities of M17 and M17-B15 to the LBP of AR LBD were determined
using PolarScreen™ Androgen Receptor Competitor Assay Kit (#A15880, Invitrogen Life
Technologies) according to the user manual. […]

[1] = test system: subcutaneous xenografts of LNCaP cells; experiment: LNCaP mouse xenograft study, intratumor injection; assay type: in vivo; conditions: 2.5 mg/kg/week; for tumor growth inhibition (TGI): LNCaP xenograft in CB17 SCID mice; for tumor volume and weight: versus vehicle
Protocol: The animal protocols were in accordance with the guidelines of the Animal Welfare Council of China, and were performed by KCBIO company (Chengdu, China). All animal use and studies were performed in compliance with all relevant ethical regulations, and were approved by the Institutional Animal Care and Use Committee (IACUC) at Kangcheng Biotechnology Co., Ltd, Sichuan, China (IACUC-202010-m-001). In brief, male CB17 SCID mice (6-8 weeks old) were housed at a constant room temperature and fed a standard rodent diet and allowed free access to water. LNCaP cells (1 × 107) suspended in 0.1 ml PBS were injected subcutaneously into the right flank of eac h CB17 SCID mice. Once tumor size reached an average tumor volume of 110 mm 3, the mice were randomized into three groups with 6 mice per group, and then intratumor injection […]
The tumor volumes were estimated by measuring length (L) and width (W) and […]
calculating volume (V= 0.5 × L × W2). Finally, the mice were sacrificed and the tumors were harvested for hematoxylin and eosin (H&E) staining. […]
Addgene), 24 ng pGL4.36[luc2P MMTV Hygro] […]
For the antagonistic models, 10 nM /well progesterone for PC3 cells , 1 nM/well dexamethasone for HeLa, and 5 nM/well aldosterone for HEK293T cells were added to stimulate the cells. Meanwhile, each cell line was treated with a series concentration of compounds (0.4, 2, and 10 μM). For the agonistic models, the cells were directly treated with the compounds without any hormones. […]
Luciferase system (#E1910, Promega).
Cell Cycle and Apoptosis for LNCaP cells […]
48 h incubation by Cell Cycle Staining Kit (#CCS012, MULTI SCIENCES) using […]

[2] = test system: endogenous PSA and AR in LNCaP cells; experiment: Western blot of PSA and AR in LNCaP cells; assay type: cell-based; conditions: 10 nM DHT, 48 h
Protocol: individually, and all in the presence of 10 nM DHT and incubated for 48 h. Then, the cells were harvested, followed by separating the cell lysate using 10% SDS-PAGE and electro-transfer to a polyvinylidene fluoride (PVDF) membrane (Bio -Rad). Blocking buffer (#P0023B, Beyotime Biotechnology) were used to block the membranes. After 0.5
(§1) h incubation at room temperature, each membrane was further incubated with specific
(§2) Lamin B1, #AF1408, Beyotime Biotechnology) and then the corresponding secondary antibody (HRP-conjugated Goat Anti-Rabbit IgG, # D110058, Sangon Biotech). The Image J program was performed for quantitative analysis of the immunoreactive bands.

[3] = test system: DHT-induced AR nuclear translocation in LNCaP cells; experiment: Nuclear and cytoplasmic fractionation, AR nuclear translocation; assay type: cell-based; conditions: 10 μM, 10 nM DHT, 16 h
Protocol: as §1, §2
Extraction of Nuclear and Cytoplasmic Fractions
presence of 10 nM DHT and incubated for 16 h. The NE-PER Nuclear and Cytoplasmic
extraction of nuclear and cytoplasmic proteins according to manufacturer’s protocol.

LNCaP cell line = experiment: Cell cycle and apoptosis of LNCaP cells (flow cytometry); assay type: cell-based
Protocol: calculating volume (V= 0.5 × L × W2). Finally, the mice were sacrificed and the tumors were harvested for hematoxylin and eosin (H&E) staining.
Luciferase Reporter Assays for PR, GR, and MR
PC3, HeLa, and HEK293T cells were cultured using 5% CSS RPMI-1640, 5% CSS RPMI-1640 and 10% FBS DMEM media in 96-well plates for 24 h, respectively. For PR induction, PC3 (1 × 10^4 cells/well) were transfected with 50 ng pcDNA3-PRB (#89130, Addgene), 24 ng pGL4.36[luc2P MMTV Hygro] (Promega) and 5 ng Renilla using HG-TransGeneTM transfection reagent (#TG-10012, Genomeditech) for 4 h. […] The luciferase activities were assessed using the Dual-Glo Luciferase system (#E1910, Promega). […]
Cell cycle were determined after 48 h incubation by Cell Cycle Staining Kit (#CCS012, MULTI SCIENCES) using […]
Cytomic FC 500MCL flow cytometer (Beckman Coulter, Inc). Cell apoptosis were determined after 24 h incubation by Annexin V-FITC/PI apoptosis kit (#AP101, MULTI SCIENCES) using BD FACS S ORP ARIA II flow cytometer (BD Biosciences).
Graphpad Prism (v.8.4) program was adopted for statistical analysis and data were presented as the mean ± standard error of mean (SEM). The value of p was determined on the basis of at least three independent assays using Student’s t-test, one-way ANOVA or two-way ANOVA analysis.

Solubility (statement) = assay type: physicochemical
FL-AR^F876L = FL-AR^F876L (Homo sapiens, UniProt P10275, F877L); experiment: Dual-luciferase reporter assay for FL-AR F876L in PC3 cells
Sequence of FL-AR^F876L (P10275 whole entry F877L): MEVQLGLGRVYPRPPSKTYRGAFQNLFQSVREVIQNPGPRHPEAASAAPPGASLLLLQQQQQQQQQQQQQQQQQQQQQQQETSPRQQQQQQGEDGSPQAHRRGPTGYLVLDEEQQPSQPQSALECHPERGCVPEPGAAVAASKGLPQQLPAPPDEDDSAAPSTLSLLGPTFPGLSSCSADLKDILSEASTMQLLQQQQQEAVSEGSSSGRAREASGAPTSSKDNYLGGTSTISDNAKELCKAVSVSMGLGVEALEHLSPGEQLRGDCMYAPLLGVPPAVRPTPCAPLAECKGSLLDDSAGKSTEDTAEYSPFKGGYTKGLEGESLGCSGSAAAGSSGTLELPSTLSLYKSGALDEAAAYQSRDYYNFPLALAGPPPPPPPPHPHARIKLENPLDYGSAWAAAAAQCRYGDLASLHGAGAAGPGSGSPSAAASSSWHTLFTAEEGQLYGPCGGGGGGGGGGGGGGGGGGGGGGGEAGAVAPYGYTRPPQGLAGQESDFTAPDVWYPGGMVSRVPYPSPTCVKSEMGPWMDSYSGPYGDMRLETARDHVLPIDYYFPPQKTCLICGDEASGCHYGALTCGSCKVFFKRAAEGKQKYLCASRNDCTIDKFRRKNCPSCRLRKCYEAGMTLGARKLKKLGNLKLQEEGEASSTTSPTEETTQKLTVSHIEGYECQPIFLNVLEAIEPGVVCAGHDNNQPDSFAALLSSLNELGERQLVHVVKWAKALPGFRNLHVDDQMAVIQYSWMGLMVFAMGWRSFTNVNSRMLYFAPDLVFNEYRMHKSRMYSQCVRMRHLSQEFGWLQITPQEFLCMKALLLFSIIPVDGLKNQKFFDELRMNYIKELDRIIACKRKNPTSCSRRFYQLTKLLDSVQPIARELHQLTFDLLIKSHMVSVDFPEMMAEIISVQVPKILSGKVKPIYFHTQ
Protocol: Luciferase Reporter Assays for FL -ARF876L and FL-ARF876L/T877A
constructed on the basis of the human full length wild type AR plasmid pCMV -hAR
transfected with 70 ng/well of FL -AR plasmid together with 24 ng of ARR2PB -Luc, and 5 ng of Renilla. After 1 day incubation at 37 °C , the antagonistic models were employed
After another 24 h incubation, the luciferase activities were determined by the Dual -Glo Luciferase system (#E1910, Promega) according to the

T1 sequence (P15207 651-882 limits assumed): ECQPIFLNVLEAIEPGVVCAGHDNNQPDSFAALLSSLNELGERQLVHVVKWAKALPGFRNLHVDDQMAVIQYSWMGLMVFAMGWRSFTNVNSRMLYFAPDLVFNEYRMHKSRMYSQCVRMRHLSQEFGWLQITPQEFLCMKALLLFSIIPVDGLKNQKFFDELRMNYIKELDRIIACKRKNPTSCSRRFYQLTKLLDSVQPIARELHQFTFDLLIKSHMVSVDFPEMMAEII

| SMILES | binding to the conventional LBP (AR LBP) | tumor growth inhibition (TGI) [1] [%] | tumor volume and weight [1] | AR levels (Western blot) ([2]; LNCaP) | endogenous PSA production (Western blot) ([2]; LNCaP, 0.1, 1, 10 μM) | DHT-induced AR nuclear translocation [3] | impact on cell cycle and apoptosis (LNCaP cell line) | solubility (Solubility (statement)) | IC50 (FL-AR^F876L) [nM] |
| --- | --- | --- | --- | --- | --- | --- | --- | --- | --- |
| CC(=O)Cc1nsc(NC(=O)c2cc(-c3cccc(C(F)(F)F)c3)oc2C)n1 [Compound M17-B15] | does not target the LBP | 83.59 | significantly inhibited | does not affect | remarkably inhibited | inhibit | do not show an obvious impact | poor solubility | 160 |
| CNC(=O)c1ccc(N2C(=S)N(c3ccc(C#N)c(C(F)(F)F)c3)C(=O)C2(C)C)cc1F [Enz, enzalutamide, reference compound] | – | 51.35 | significantly inhibited | – | – | – | do not show an obvious impact | – | – |
